# Reference: ChEMBL document CHEMBL3272121, “Hypolipidemic analogues of ethyl 4-benzyloxybenzoate” (J Med Chem, 1977)
# Where a name gives a salt, the structure may show the parent alone.
# Columns and labels:
# Rattus norvegicus [1] = assay: Hypolipidemic activity in CFY Sprague-Dawley rat assessed as serum cholesterol level at 0.25% dietary level administered for 7 days relative to control; type: functional
# Rattus norvegicus [2] = assay: Hypolipidemic activity in CFY Sprague-Dawley rat assessed as serum triglyceride level at 0.25% dietary level administered for 7 days relative to control; type: functional
# Rattus norvegicus [3] = assay: Toxicity in CFY Sprague-Dawley rat assessed as body weight gain at 0.25% dietary level administered for 7 days relative to control; type: organism-based; settings: in vivo, po, 168 h
# Rattus norvegicus [4] = assay: Toxicity in CFY Sprague-Dawley rat assessed as relative liver weight at 0.25% dietary level administered for 7 days relative to control; type: organism-based; settings: in vivo, po, 168 h
# Rattus norvegicus [5] = assay: Hypolipidemic activity in CFY Sprague-Dawley rat assessed as liver lipid per gm of liver at 0.25% dietary level administered for 7 days relative to control; type: functional
# Rattus norvegicus [6] = assay: Hypolipidemic activity in CFY Sprague-Dawley rat assessed as serum cholesterol level at 0.2% dietary level administered for 7 days relative to control; type: functional
# Rattus norvegicus [7] = assay: Hypolipidemic activity in CFY Sprague-Dawley rat assessed as serum cholesterol level at 1% dietary level administered for 7 days relative to control; type: functional
# Rattus norvegicus [8] = assay: Hypolipidemic activity in CFY Sprague-Dawley rat assessed as serum triglyceride level at 0.2% dietary level administered for 7 days relative to control; type: functional
# Rattus norvegicus [9] = assay: Hypolipidemic activity in CFY Sprague-Dawley rat assessed as serum triglyceride level at 1% dietary level administered for 7 days relative to control; type: functional
# Rattus norvegicus [10] = assay: Toxicity in CFY Sprague-Dawley rat assessed as body weight gain at 0.2% dietary level administered for 7 days relative to control; type: organism-based; settings: in vivo, po, 168 h
# Rattus norvegicus [11] = assay: Toxicity in CFY Sprague-Dawley rat assessed as body weight gain at 1% dietary level administered for 7 days relative to control; type: organism-based; settings: in vivo, po, 168 h
# Rattus norvegicus [12] = assay: Toxicity in CFY Sprague-Dawley rat assessed as relative liver weight at 0.2% dietary level administered for 7 days relative to control; type: organism-based; settings: in vivo, po, 168 h
# Rattus norvegicus [13] = assay: Toxicity in CFY Sprague-Dawley rat assessed as relative liver weight at 1% dietary level administered for 7 days relative to control; type: organism-based; settings: in vivo, po, 168 h
# Rattus norvegicus [14] = assay: Hypolipidemic activity in CFY Sprague-Dawley rat assessed as liver lipid per gm of liver at 0.2% dietary level administered for 7 days relative to control; type: functional
# Rattus norvegicus [15] = assay: Hypolipidemic activity in CFY Sprague-Dawley rat assessed as liver lipid per gm of liver at 1% dietary level administered for 7 days relative to control; type: functional
# Liver [16] = assay: Inhibition of cholesterol biosynthesis from [1-14C]acetate in rat liver slices at […] relative to control; type: functional
# Liver [17] = assay: Inhibition of fatty acid biosynthesis from [1-14C]acetate in rat liver slices at 5 X 10^-4 M relative to control; type: functional
# Liver [18] = assay: Inhibition of cholesterol biosynthesis from [1-14C]acetate in rat liver slices at 1 X 10^-4 M relative to control; type: functional
# Liver [19] = assay: Inhibition of fatty acid biosynthesis from [1-14C]acetate in rat liver slices at 1 X 10^-4 M relative to control; type: functional
Compound,Activity (Rattus norvegicus [1]) [%],Activity (Rattus norvegicus [2]) [%],Activity (Rattus norvegicus [3]) [%],Activity (Rattus norvegicus [4]) [%],Activity (Rattus norvegicus [5]) [%],Activity (Rattus norvegicus [6]) [%],Activity (Rattus norvegicus [7]) [%],Activity (Rattus norvegicus [8]) [%],Activity (Rattus norvegicus [9]) [%],Activity (Rattus norvegicus [10]) [%],Activity (Rattus norvegicus [11]) [%],Activity (Rattus norvegicus [12]) [%],Activity (Rattus norvegicus [13]) [%],Activity (Rattus norvegicus [14]) [%],Activity (Rattus norvegicus [15]) [%],inhibition at 500 µM (Liver [16]) [%],inhibition at 500 µM (Liver [17]) [%],inhibition at 100 µM (Liver [18]) [%],inhibition at 100 µM (Liver [19]) [%]
O=C(O)c1ccc(OCc2ccccc2)cc1,-23,-65,-5,10,-4,-14,-24,-50,-34,-13,-62,0,50,8,1,92,65,,
CCOC(=O)c1ccc(OCc2ccc(C)cc2)cc1,-18,-54,-4,4,1,-17,-13,-42,-46,14,-19,2,19,-7,3,47,47,,
CCCc1ccc(OCc2ccccc2)c(OC)c1,15,12,0,17,4,,,,,,,,,,,34,3,,
CCCCCCCCCc1ccc(OCc2ccccc2)cc1,-12,-67,-41,-5,,,,,,,,,,,,67,60,,
Cc1ccc(OCc2ccccc2)cc1,-19,-19,-7,29,,,,,,,,,,,,67,43,,
CC(C)OC(=O)c1ccc(OCc2ccccc2)cc1,-10,-40,-4,13,-5,,,,,,,,,,,,,,
CCOCCOC(=O)c1ccc(OCc2ccccc2)cc1,-17,-51,10,10,0,,,,,,,,,,,,,,
COC(=O)c1ccc(OCc2ccccc2)cc1,-19,-51,-14,15,4,,,,,,,,,,,,,,
O=C([O-])c1ccc(OCc2ccccc2)cc1.[Na+],-15,-38,-13,2,12,,,,,,,,,,,,,,
CCOC(=O)c1ccc(OCc2cccc(C)c2)cc1,-18,-54,-10,-2,,,,,,,,,,,,97,82,,
CCOC(=O)c1ccc(OCc2cc(C)ccc2C)cc1,-12,-49,-21,-9,,,,,,,,,,,,93,55,,
CCOC(=O)c1ccc(OCc2ccc(C)c(C)c2)cc1,-19,-47,-7,10,13,,,,,,,,,,,97,94,,
CCOC(=O)c1ccc(OCc2ccc(Br)cc2)cc1,-29,-52,1,10,0,-23,-24,-62,-39,17,-8,8,20,-2,4,98,84,,
CCOC(=O)c1ccc(OCc2ccc(F)cc2)cc1,-31,-48,9,8,1,,,,,,,,,,,86,12,,
O=C(O)c1ccc(OCc2ccc(F)cc2)cc1,-28,-49,-3,2,8,,,,,,,,,,,,,,
CCOC(=O)c1ccc(OCc2cccc(F)c2)cc1,-19,-60,-1,-4,1,,,,,,,,,,,,,,
CCOC(=O)c1ccc(OCc2cccc(C(F)(F)F)c2)cc1,-11,8,12,9,,,,,,,,,,,,99,92,,

Compound,Activity (Rattus norvegicus [1]) [%],Activity (Rattus norvegicus [2]) [%],Activity (Rattus norvegicus [3]) [%],Activity (Rattus norvegicus [4]) [%],Activity (Rattus norvegicus [5]) [%],Activity (Rattus norvegicus [6]) [%],Activity (Rattus norvegicus [7]) [%],Activity (Rattus norvegicus [8]) [%],Activity (Rattus norvegicus [9]) [%],Activity (Rattus norvegicus [10]) [%],Activity (Rattus norvegicus [11]) [%],Activity (Rattus norvegicus [12]) [%],Activity (Rattus norvegicus [13]) [%],Activity (Rattus norvegicus [14]) [%],Activity (Rattus norvegicus [15]) [%],inhibition at 500 µM (Liver [16]) [%],inhibition at 500 µM (Liver [17]) [%],inhibition at 100 µM (Liver [18]) [%],inhibition at 100 µM (Liver [19]) [%]
CCOC(=O)c1ccc(OCc2ccccc2OC)cc1,-13,-42,-10,-2,7,,,,,,,,,,,,,,
CCOC(=O)c1ccc(OCc2cccc([N+](=O)[O-])c2)cc1,-7,-28,-29,-4,,,,,,,,,,,,54,47,,
CCOC(=O)c1ccc(OCc2ccccc2[N+](=O)[O-])cc1,-20,-21,8,12,3,,,,,,,,,,,82,69,,
CCOC(=O)Cc1ccc(OCc2ccccc2)cc1,-18,-84,-23,28,65,,,,,,,,,,,93,100,,
CCOC(=O)Cc1ccc(OCc2ccc(Cl)cc2)cc1,-28,-91,-10,14,8,,,,,,,,,,,68,59,,
CCOC(=O)Cc1ccc(OCc2ccccc2F)cc1,-29,-64,-20,-22,-1,,,,,,,,,,,,,,
CCOC(=O)Cc1ccc(OCc2cccc(F)c2)cc1,-37,-71,-17,18,9,,,,,,,,,,,,,,
CCOC(=O)Cc1ccc(OCc2ccc(F)cc2)cc1,-29,-71,3,19,11,,,,,,,,,,,,,,
CCOC(=O)Cc1cccc(OCc2ccccc2OC)c1,-16,-13,17,34,9,,,,,,,,,,,,,,
CCOC(=O)Cc1ccc(OCc2ccccc2OC)cc1,-24,-57,6,4,7,-22,-21,-64,-53,6,-16,8,19,5,20,,,57,48
COC(=O)CCc1ccc(OCc2ccccc2)cc1,-16,-45,-3,18,3,,,,,,,,,,,,,,
CCOC(=O)CCCCCc1ccc(OCc2ccccc2)cc1,-38,-83,-7,21,32,,,,,,,,,,,,,,
CCOC(=O)c1ccc(COc2ccccc2)cc1,-25,-38,8,26,3,,,,,,,,,,,,,,
CCOC(=O)c1ccc(COc2ccc(C)cc2)cc1,-20,-41,5,4,13,,,,,,,,,,,,,,
CCOC(=O)C(C)(C)Oc1ccc(Cl)cc1 [CLOFIBRATE],-23,-31,0,32,3,,,,,,,,,,,,,,
CCCC(C(=O)OCCN(CC)CC)(c1ccccc1)c1ccccc1 [PROADIFEN HYDROCHLORIDE],,,,,,,,,,,,,,,,86,62,,
